Source: US8901118B2, “Compounds and methods for kinase modulation, and indications therefor” (Plexxikon Inc., priority 2010, dated 2014)

Tests used:
[1] = target: T1, BCR-NTRK1 BaF3 cells (Homo sapiens, UniProt P04629); assay: BaF3 BCR-NTRK1 cell proliferation assay (ATPlite); type: cell-based; details: read-out: Inhibition of Cell Proliferation IC50, BCR/BaF3 TrkA
T1 construct: fused on or other part: P11274 (Breakpoint cluster region protein)
Experimental: Compounds are assessed in a variety of cell based assays. For example BaF3 cells engineered with any of BCR-FMS, BCR-KIT, BCR-FLT3, BCR-NTRK1, BCR-NTRK2, and BCR-NTRK3, are used in cell proliferation assays to assess inhibitory activity of Fms, Kit, Flt-3, TrkA, TrkB, and TrkC, respectively. An MV-4-11 (leukemia) cell proliferation assay is used to assess inhibitory activity in Flt-3, and SKNSH (human neuroblastoma) cell proliferation assay is used to assess efficacy of Fms/Trk inhibitors. Additional cells may be assayed similarly to assess the efficacy of Fms/Trk inhibitors, such as MiaPaCa (human pancreatic cancer) and Capan-1 (human pancreatic carcinoma) cells. Reagent and assay conditions are as follows: • BaF3 cells: • Maintained in RPMI containing 10% FBS, 1% PenStrep, 1% NEAA, and 1% L-Glutamine, supplemented with 1 mg/mL G418 and 5% WEHI-CM (or recombinant murine IL-3). • Confluent cells are split 1:50 to 1:100 every 3-4 days. • MV-4-11 cells: • Maintained in Iscove's Modified Dulbecco's Medium containing 10% FBS. • Confluent cells are split 1:4 every 3-4 days. • SKNSH cells: RPMI containing 10% FBS. On day 1, cells are counted, then centrifuged in a conical tube for 5 minutes at 1000 rpm. The supernatant is removed and cells are re-suspended as follows: • BaF3: resuspend in growth media +1 mg/mL G418 (without WEHFIL-3) to 2×10^5 cells/mL. • MV-4-11: resuspend in growth media to 5×10^5 cells/mL. • SKNSH: resuspend in growth media to 2×10^4 cells/mL. The cells are plated (50 μL, 150 μL for SKNSH cells) in each well of a 96-well dish (Corning 3610) and incubated at 37° C. in 5% CO2 overnight, cells plated to a final concentration of cells as follows: • BaF3: 10,000 cells per well. • MV-4-11: 25,000 cells per well. • SKNSH: 3,000 cells per well. On day 2, compound at a maximum concentration of 5 mM is serially diluted 1:3 for a total of 8 point titration with DMSO as a control. A 1 μL aliquot of each dilution point is added to 249 μL growth media and 50 μL is added to a well containing cells, providing 10 μM compound for the maximum concentration point. The cells are incubated for 3 days at 37° C. in 5% CO2. For SKNSH cells, a 0.75 μL aliquot of appropriate dilution in DMSO is added to 150 μL of cells. On day 5, ATPlite 1 step Luminescence Assay System (Perkin Elmer #6016739) is brought to room temperature along with the cell cultures. ATPlite is added to each well as follows: • BaF3: 25 μL per well. • MV-4-11: 40 μL per well. • SKNSH: 20 μL per well. The cells are incubated at room temperature for 10 minutes, then luminescence is read on Safire reader. The measured luminescence correlates directly with cell number, such that the reading as a function of compound concentration is used to determine the IC50 value.
It is understood that the results of these assays may vary as assay conditions are varied. Inhibition levels determined under the conditions described herein represent a relative activity for the compounds tested under the specific conditions employed. The cell based assays are likely to show variability due to the complexity of the system and the sensitivity thereof to any changes in the assay conditions. […] Results for compounds that are tested and show substantially no inhibition below the highest tested concentration are represented as “-” in the tables below. In some instances, the compounds were not tested in all of the assays, or assay results were not valid, as indicated by NA in the tables below.

[2] = target: CYP2D6 (Homo sapiens, UniProt P10635); assay: CYP2D6 inhibition (fluorescent substrate AMMC); type: in vitro ADME; details: read-out: Cyp IC50 2D6
Experimental: (§1) CYP (Cytochrome P450) enzymes are the major drug metabolizing enzymes present in the liver. The inhibition of CYP enzyme activity (IC50) for each of CYP1A2, CYP2C19, CYP2C9, CYP2D6, CYP3A4(BFC) and CYP3A4(BQ) is determined for compounds, where inhibition of metabolism of a known substrate leads to a decrease in the fluorescence of the metabolized product. The fluorescence of the product is monitored as a function of compound concentration. Compounds are dissolved in DMSO to a concentration of 100 mM. These are diluted 1 μL into 82 μL of acetonitrile. An 11 μL aliquot of this solution is then added to 204 μL of cofactor mix (1.3% NADPH Regeneration system Solution A, 1.04% NADPH Regeneration system Solution B from BD Biosciences, 5% acetonitrile and 0.05% DMSO). These are then serially diluted 1:1 (160 μL to 160 μL co-factor mix) for a total of 10 points. A 10 μL aliquot of this final mixture is dispensed into 384 well assay plates and incubated for 10 minutes at 37° C. […] Assay plates are incubated at 37° C. (CYP1A2-15 min; CYP2C9-45 min; CYP2C19, 2D6 and 3A4-30 min) and read in a Tecan Safire 2 plate reader (CYP1A2, 2C19 and 3A4 409 ex/460 em; CYP2C9 and 2D6 409 ex/530 em). The signal versus compound concentration is used to determine the IC50. The enzymes and substrates for this assay are obtained from BD Biosciences.

[3] = target: T2, CYP1A2 (Homo sapiens, UniProt P05177); assay: CYP1A2 inhibition (fluorescent substrate CEC); type: in vitro ADME; details: read-out: Cyp IC50 1A2
T2 sequence (P05177 1-516): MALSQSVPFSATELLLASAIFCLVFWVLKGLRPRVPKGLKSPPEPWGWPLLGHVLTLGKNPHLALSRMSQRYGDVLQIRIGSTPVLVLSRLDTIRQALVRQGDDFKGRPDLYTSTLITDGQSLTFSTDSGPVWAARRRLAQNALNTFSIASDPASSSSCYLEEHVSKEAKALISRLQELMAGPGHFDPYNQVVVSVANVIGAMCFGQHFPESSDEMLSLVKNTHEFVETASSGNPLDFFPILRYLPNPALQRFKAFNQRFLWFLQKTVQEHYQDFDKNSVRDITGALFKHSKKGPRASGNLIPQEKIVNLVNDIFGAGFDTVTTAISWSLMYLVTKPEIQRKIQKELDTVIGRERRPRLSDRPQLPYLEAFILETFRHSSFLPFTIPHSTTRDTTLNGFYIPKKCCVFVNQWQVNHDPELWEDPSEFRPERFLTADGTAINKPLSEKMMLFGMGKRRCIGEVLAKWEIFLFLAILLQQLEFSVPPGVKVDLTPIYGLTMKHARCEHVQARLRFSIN
Experimental: as §1

T1 sequence (P04629 510-781): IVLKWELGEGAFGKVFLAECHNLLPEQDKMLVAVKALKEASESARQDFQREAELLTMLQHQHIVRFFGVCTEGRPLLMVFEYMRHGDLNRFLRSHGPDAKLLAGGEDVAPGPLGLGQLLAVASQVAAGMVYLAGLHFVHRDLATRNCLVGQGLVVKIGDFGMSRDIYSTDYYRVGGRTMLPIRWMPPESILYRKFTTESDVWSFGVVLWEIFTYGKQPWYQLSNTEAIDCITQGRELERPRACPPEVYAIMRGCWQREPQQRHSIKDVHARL
Sequence of CYP2D6 (P10635 whole entry): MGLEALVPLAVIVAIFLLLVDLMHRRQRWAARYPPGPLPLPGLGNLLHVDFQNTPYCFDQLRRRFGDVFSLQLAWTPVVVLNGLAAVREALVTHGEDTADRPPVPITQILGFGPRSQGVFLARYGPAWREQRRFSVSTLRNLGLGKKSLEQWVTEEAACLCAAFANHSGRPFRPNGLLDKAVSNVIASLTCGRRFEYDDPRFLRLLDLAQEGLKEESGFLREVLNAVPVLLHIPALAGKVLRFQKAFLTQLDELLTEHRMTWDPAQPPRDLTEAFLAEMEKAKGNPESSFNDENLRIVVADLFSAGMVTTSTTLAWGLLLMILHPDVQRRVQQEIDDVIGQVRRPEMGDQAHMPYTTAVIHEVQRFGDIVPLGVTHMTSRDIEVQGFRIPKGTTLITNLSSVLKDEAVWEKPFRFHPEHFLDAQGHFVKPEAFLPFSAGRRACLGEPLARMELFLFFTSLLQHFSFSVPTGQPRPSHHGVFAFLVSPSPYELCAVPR

Row | SMILES | IC50 [1] [µM] | IC50 [2] [µM] | IC50 [3] [µM]
1 | CC1CCC(Nc2ncc(Cc3c[nH]c4ncc(Cl)cc34)cn2)CC1 (stereo not shown) [Compound P-3009, [5-(5-Chloro-1H-pyrrolo[2,3-b]pyridin-3-ylmethyl)-pyrimidin-2-yl]-(4-methyl-cyclohexyl)-amine] | > 10 | > 10 | > 10
2 | Cc1cnc2[nH]cc(Cc3cnc(Nc4ccc(F)cc4)nc3)c2c1 [Compound P-3010, (4-Fluoro-phenyl)-[5-(5-methyl-1H-pyrrolo[2,3-b]pyridin-3-ylmethyl)-pyrimidin-2-yl]-amine] | > 10 | > 10 | > 10
3 | Fc1nc(NC2CCC(F)(F)CC2)ccc1Cc1c[nH]c2ncc(Cl)cc12 [Compound P-3013, [5-(5-Chloro-1H-pyrrolo[2,3-b]pyridin-3-ylmethyl)-6-fluoro-pyridin-2-yl]-(4,4-difluoro-cyclohexyl)-amine] | > 10 | > 10 | 5 to 10
4 | Fc1ccccc1Nc1ncc(Cc2c[nH]c3ncc(Cl)cc23)cn1 [Compound P-3014, [5-(5-Chloro-1H-pyrrolo[2,3-b]pyridin-3-ylmethyl)-pyrimidin-2-yl]-(2-fluoro-phenyl)-amine] | > 10 |  | 
5 | Clc1cnc2[nH]cc(Cc3cnc(Nc4ccccc4Cl)nc3)c2c1 [Compound P-3015, (2-Chloro-phenyl)-[5-(5-chloro-1H-pyrrolo[2,3-b]pyridin-3-ylmethyl)-pyrimidin-2-yl]-amine] | > 10 |  | 
6 | O=C(c1ccc(NC2CCC(F)(F)CC2)nc1Cl)c1c[nH]c2ncnc(NCC(F)(F)F)c12 [Compound P-4057, [2-chloro-6-[(4,4-difluorocyclohexyl)amino]-3-pyridyl]-[4-(2,2,2-trifluoroethylamino)-7H-pyrrolo[2,3-d]pyrimidin-5-yl]methanone] | > 1 | > 10 | > 10
7 | CNc1ncnc2[nH]cc(C(=O)c3ccc(NC4CCC(F)(F)CC4)nc3Cl)c12 [Compound P-4058, [2-chloro-6-[(4,4-difluorocyclohexyl)amino]-3-pyridyl]-[4-(methylamino)-7H-pyrrolo[2,3-d]pyrimidin-5-yl]methanone] | < 1 | > 10 | > 10
8 | O=C(c1ccc(NC2CCC(F)(F)CC2)nc1Cl)c1c[nH]c2ncnc(NC3CC3)c12 [Compound P-4059, [2-chloro-6-[(4,4-difluorocyclohexyl)amino]-3-pyridyl]-[4-(cyclopropylamino)-7H-pyrrolo[2,3-d]pyrimidin-5-yl]methanone] | < 1 | > 10 | > 10
9 | CNc1ncnc2[nH]cc(C(=O)c3ccc(Nc4ccc(OC)nc4)nc3OC)c12 [Compound P-4085, [2-methoxy-6-[(6-methoxy-3-pyridyl)amino]-3-pyridyl]-[4-(methylamino)-7H-pyrrolo[2,3-d]pyrimidin-5-yl]methanone] | < 1 |  | 

Further lines, results first:

Row | IC50 [1] [µM] | IC50 [2] [µM] | IC50 [3] [µM] | SMILES
10 | < 1 | > 10 | > 10 | Clc1ccc(Nc2ncc(Cc3c[nH]c4ncc(Cl)cc34)cn2)cc1 [Compound P-3011, (4-Chloro-phenyl)-[5-(5-chloro-1H-pyrrolo[2,3-b]pyridin-3-ylmethyl)-pyrimidin-2-yl]-amine]
11 | < 1 | > 10 | > 10 | Fc1ccc(Nc2ncc(Cc3c[nH]c4ncc(Cl)cc34)cn2)cc1 [Compound P-3012, [5-(5-Chloro-1H-pyrrolo[2,3-b]pyridin-3-ylmethyl)-pyrimidin-2-yl]-(4-fluoro-phenyl)-amine]
12 | < 1 | > 10 | < 10 | COc1ccc(Nc2ccc(C(=O)c3c[nH]c4ncnc(NC(C)(C)C)c34)c(F)n2)cn1 [Compound P-4055, [4-(tert-butylamino)-7H-pyrrolo[2,3-d]pyrimidin-5-yl]-[2-fluoro-6-[(6-methoxy-3-pyridyl)amino]-3-pyridyl]methanone]
13 | < 1 | > 10 | > 10 | COc1ccc(Nc2ccc(C(=O)c3c[nH]c4ncnc(NC5CCC(F)(F)CC5)c34)c(F)n2)cn1 [Compound P-4056, [4-[(4,4-difluorocyclohexyl)amino]-7H-pyrrolo[2,3-d]pyrimidin-5-yl]-[2-fluoro-6-[(6-methoxy-3-pyridyl)amino]-3-pyridyl]methanone]
14 | < 0.01 | > 10 | > 10 | CCNc1ncnc2[nH]cc(C(=O)c3ccc(Nc4ccc(C5CC5)nc4)nc3F)c12 [Compound P-4060, [6-[(6-cyclopropyl-3-pyridyl)amino]-2-fluoro-3-pyridyl]-[4-(ethylamino)-7H-pyrrolo[2,3-d]pyrimidin-5-yl]methanone]
15 | < 0.1 | > 10 | > 10 | O=C(c1ccc(NC2CCC(F)(F)CC2)nc1F)c1c[nH]c2ncnc(NCC(F)(F)F)c12 [Compound P-4061, [6-[(4,4-difluorocyclohexyl)amino]-2-fluoro-3-pyridyl]-[4-(2,2,2-trifluoroethylamino)-7H-pyrrolo[2,3-d]pyrimidin-5-yl]methanone]
16 | < 0.01 |  |  | CCc1ccc(Nc2ccc(C(=O)c3c[nH]c4ncnc(Nc5ccc(C)nc5)c34)c(F)n2)cn1 [Compound P-4086, [6-[(6-ethyl-3-pyridyl)amino]-2-fluoro-3-pyridyl]-[4-[(6-methyl-3-pyridyl)amino]-7H-pyrrolo[2,3-d]pyrimidin-5-yl]methanone]
